Experimental data as given in ChEMBL document CHEMBL4118082 (Eur J Med Chem, 2017).
In brackets after ≈: the same amount, converted by molar mass.

Columns and labels:
Format in all cases: functional
[1] = test system: Mycobacterium tuberculosis; test: Growth inhibition of Mycobacterium tuberculosis H37Ra Lehmann and Neumann ATCC 25177 harboring pSMT1 luciferase reporter at 10 uM after 6 days by luminescence based serial dilution method relative to control; conditions: H37Ra Lehmann and Neumann ATCC 25177, 144 h, read-out: GI
[2] = test system: Mycobacterium tuberculosis; test: Growth inhibition of Mycobacterium tuberculosis H37Ra Lehmann and Neumann ATCC 25177 harboring pSMT1 luciferase reporter at 1 uM after 6 days by luminescence based serial dilution method relative to control; conditions: H37Ra Lehmann and Neumann ATCC 25177, 144 h, read-out: GI
[3] = test system: Mycobacterium tuberculosis; test: Growth inhibition of Mycobacterium tuberculosis H37Ra Lehmann and Neumann ATCC 25177 harboring pSMT1 luciferase reporter at 0.1 uM after 6 days by luminescence based serial dilution method relative to control; conditions: H37Ra Lehmann and Neumann ATCC 25177, 144 h, read-out: GI
[4] = test system: Mycobacterium tuberculosis; test: Antimycobacterial activity against Mycobacterium tuberculosis H37Ra Lehmann and Neumann ATCC 25177 harboring pSMT1 luciferase reporter after 6 days by luminescence based serial dilution method; conditions: H37Ra Lehmann and Neumann ATCC 25177, 144 h

CC(=O)Oc1cc(=O)[nH]c2ccccc12
inhibition of growth at 10 µM [1]: 35.4%
inhibition of growth at 1 µM [2]: 21.1%
inhibition of growth at 0.1 µM [3]: 14.5%

O=c1c(-c2ccccc2)c(O)c2ccccc2n1-c1ccccc1
inhibition of growth at 10 µM [1]: 98.3%
inhibition of growth at 1 µM [2]: 53.7%
inhibition of growth at 0.1 µM [3]: 30.1%
MIC90 [4]: 6.4 µM (≈ 2.01 µg/mL)

Cn1c(=O)c(-c2ccccc2)c(O)c2ccccc21
inhibition of growth at 10 µM [1]: 87.2%
inhibition of growth at 1 µM [2]: 49.5%
inhibition of growth at 0.1 µM [3]: 29.8%

Oc1nc2ccccc2c(O)c1Cc1ccccc1
inhibition of growth at 10 µM [1]: 53.5%
inhibition of growth at 1 µM [2]: 40.2%
inhibition of growth at 0.1 µM [3]: 7.5%

CCCc1c(O)c2ccccc2n(-c2ccccc2)c1=O
inhibition of growth at 10 µM [1]: 56.6%
inhibition of growth at 1 µM [2]: 46.3%
inhibition of growth at 0.1 µM [3]: 10.4%

CCn1c(=O)c(-c2ccccc2)c(O)c2ccccc21
inhibition of growth at 10 µM [1]: 8.2%
inhibition of growth at 1 µM [2]: 0%
inhibition of growth at 0.1 µM [3]: 0%

COc1cccc2c(O)c(-c3ccccc3)c(O)nc12
inhibition of growth at 10 µM [1]: 95%
inhibition of growth at 1 µM [2]: 47.5%
inhibition of growth at 0.1 µM [3]: 42.5%
MIC90 [4]: 7.9 µM (≈ 2.11 µg/mL)

Cc1c(O)c2ccccc2n(-c2ccccc2)c1=O
inhibition of growth at 10 µM [1]: 74.5%
inhibition of growth at 1 µM [2]: 48.5%
inhibition of growth at 0.1 µM [3]: 36%

Oc1nc2ccccc2c(O)c1-c1ccccc1
inhibition of growth at 10 µM [1]: 92.4%
inhibition of growth at 1 µM [2]: 59.2%
inhibition of growth at 0.1 µM [3]: 56%
MIC90 [4]: 8.5 µM (≈ 2.02 µg/mL)

CC(=O)Oc1c(-c2ccccc2)c(=O)[nH]c2ccc(F)cc12
inhibition of growth at 10 µM [1]: 99.2%
inhibition of growth at 1 µM [2]: 38%
inhibition of growth at 0.1 µM [3]: 31%
MIC90 [4]: 3.8 µM (≈ 1.13 µg/mL)

CCc1c(O)c2cc(OC)ccc2[nH]c1=O
inhibition of growth at 10 µM [1]: 68.2%
inhibition of growth at 1 µM [2]: 56.3%
inhibition of growth at 0.1 µM [3]: 0%

Cc1cc2[nH]c(=O)c(-c3ccccc3)c(O)c2cc1C
inhibition of growth at 10 µM [1]: 90.7%
inhibition of growth at 1 µM [2]: 48.3%
inhibition of growth at 0.1 µM [3]: 32.5%
MIC90 [4]: 9.2 µM (≈ 2.44 µg/mL)

CCc1c(OC(C)=O)c2ccc(OC)cc2[nH]c1=O
inhibition of growth at 10 µM [1]: 28.6%
inhibition of growth at 1 µM [2]: 15.3%
inhibition of growth at 0.1 µM [3]: 0%

CCc1c(O)c2ccccc2n(-c2ccccc2)c1=O
inhibition of growth at 10 µM [1]: 25.6%
inhibition of growth at 1 µM [2]: 34.8%
inhibition of growth at 0.1 µM [3]: 22.5%

CCc1c(O)c2ccc(O)cc2[nH]c1=O
inhibition of growth at 10 µM [1]: 49.4%
inhibition of growth at 1 µM [2]: 34.3%
inhibition of growth at 0.1 µM [3]: 25.6%

CCc1c(OC(C)=O)c2cccc(OC)c2[nH]c1=O
inhibition of growth at 10 µM [1]: 31.2%
inhibition of growth at 1 µM [2]: 13.3%
inhibition of growth at 0.1 µM [3]: 0%

O=c1c(Cc2ccccc2)c(O)c2ccccc2n1Cc1ccccc1
inhibition of growth at 10 µM [1]: 49.5%
inhibition of growth at 1 µM [2]: 38.8%
inhibition of growth at 0.1 µM [3]: 24.8%

COc1ccc2[nH]c(=O)c(-c3ccccc3)c(OC(C)=O)c2c1
inhibition of growth at 10 µM [1]: 79.6%
inhibition of growth at 1 µM [2]: 43.2%
inhibition of growth at 0.1 µM [3]: 22.5%

CCc1c(OC(C)=O)c2ccccc2[nH]c1=O
inhibition of growth at 10 µM [1]: 29.4%
inhibition of growth at 1 µM [2]: 9.4%
inhibition of growth at 0.1 µM [3]: 3.5%

COc1cccc2c(OC(C)=O)c(-c3ccccc3)c(=O)[nH]c12
inhibition of growth at 10 µM [1]: 76.3%
inhibition of growth at 1 µM [2]: 32.5%
inhibition of growth at 0.1 µM [3]: 8.9%

O=c1[nH]c2c(O)cccc2c(O)c1-c1ccccc1
inhibition of growth at 10 µM [1]: 95.3%
inhibition of growth at 1 µM [2]: 67.1%
inhibition of growth at 0.1 µM [3]: 60%
MIC90 [4]: 8.3 µM (≈ 2.1 µg/mL)

CCc1c(O)c2ccc(OC)cc2[nH]c1=O
inhibition of growth at 10 µM [1]: 60.8%
inhibition of growth at 1 µM [2]: 36%
inhibition of growth at 0.1 µM [3]: 23.7%

O=c1[nH]c2ccc(F)cc2c(O)c1-c1ccccc1
inhibition of growth at 10 µM [1]: 99.5%
inhibition of growth at 1 µM [2]: 42.6%
inhibition of growth at 0.1 µM [3]: 35.1%
MIC90 [4]: 3.2 µM (≈ 0.817 µg/mL)

CCCCc1c(O)c2ccccc2n(-c2ccccc2)c1=O
inhibition of growth at 10 µM [1]: 47.3%
inhibition of growth at 1 µM [2]: 46.3%
inhibition of growth at 0.1 µM [3]: 34.4%

CCc1c(O)c2cc(F)ccc2[nH]c1=O
inhibition of growth at 10 µM [1]: 57.3%
inhibition of growth at 1 µM [2]: 51.3%
inhibition of growth at 0.1 µM [3]: 40%

CCc1c(O)c2c(C)ccc(C)c2[nH]c1=O
inhibition of growth at 10 µM [1]: 86.2%
inhibition of growth at 1 µM [2]: 46.4%
inhibition of growth at 0.1 µM [3]: 16.9%

CCc1c(O)c2ccccc2[nH]c1=O
inhibition of growth at 10 µM [1]: 98.6%
inhibition of growth at 1 µM [2]: 78.2%
inhibition of growth at 0.1 µM [3]: 59.2%

COc1ccc2[nH]c(=O)c(-c3ccccc3)c(O)c2c1
inhibition of growth at 10 µM [1]: 90.8%
inhibition of growth at 1 µM [2]: 24.5%
inhibition of growth at 0.1 µM [3]: 9.4%
MIC90 [4]: 8.7 µM (≈ 2.33 µg/mL)

CCCCc1c(O)c2ccccc2n(C)c1=O
inhibition of growth at 10 µM [1]: 23.9%
inhibition of growth at 1 µM [2]: 10.5%
inhibition of growth at 0.1 µM [3]: 0%

CCCCc1c(O)c2cc(OC)cc(OC)c2[nH]c1=O
inhibition of growth at 10 µM [1]: 62.6%
inhibition of growth at 1 µM [2]: 10.7%
inhibition of growth at 0.1 µM [3]: 0%

O=c1[nH]c2ccc(O)cc2c(O)c1-c1ccccc1
inhibition of growth at 10 µM [1]: 95.1%
inhibition of growth at 1 µM [2]: 52.1%
inhibition of growth at 0.1 µM [3]: 32.3%
MIC90 [4]: 8.3 µM (≈ 2.1 µg/mL)

CCCCc1c(O)c2c(Cl)ccc(C)c2[nH]c1=O
inhibition of growth at 10 µM [1]: 59.1%
inhibition of growth at 1 µM [2]: 38.7%
inhibition of growth at 0.1 µM [3]: 30%

Cc1ccc2[nH]c(=O)c(-c3ccccc3)c(O)c2c1
inhibition of growth at 10 µM [1]: 92.3%
inhibition of growth at 1 µM [2]: 51.2%
inhibition of growth at 0.1 µM [3]: 36.2%
MIC90 [4]: 8 µM (≈ 2.01 µg/mL)

O=c1c(Cc2ccccc2)c(O)c2ccccc2n1-c1ccccc1
inhibition of growth at 10 µM [1]: 56.3%
inhibition of growth at 1 µM [2]: 54.7%
inhibition of growth at 0.1 µM [3]: 20.3%

CCc1c(OC(C)=O)c2cc(F)ccc2[nH]c1=O
inhibition of growth at 10 µM [1]: 44.5%
inhibition of growth at 1 µM [2]: 14%
inhibition of growth at 0.1 µM [3]: 0%

CCc1c(O)c2cccc(OC)c2[nH]c1=O
inhibition of growth at 10 µM [1]: 71%
inhibition of growth at 1 µM [2]: 66.4%
inhibition of growth at 0.1 µM [3]: 65.8%

Cc1c(O)c2ccccc2[nH]c1=O
inhibition of growth at 10 µM [1]: 55.5%
inhibition of growth at 1 µM [2]: 46.6%
inhibition of growth at 0.1 µM [3]: 43.6%
MIC90 [4]: 6.8 µM (≈ 1.19 µg/mL)

COc1ccc2c(OC(C)=O)c(-c3ccccc3)c(=O)[nH]c2c1
inhibition of growth at 10 µM [1]: 81.2%
inhibition of growth at 1 µM [2]: 39.7%
inhibition of growth at 0.1 µM [3]: 20.9%

CCc1c(O)c2c(Cl)ccc(C)c2[nH]c1=O
inhibition of growth at 10 µM [1]: 55.1%
inhibition of growth at 1 µM [2]: 48.8%
inhibition of growth at 0.1 µM [3]: 33.3%

O=c1[nH]c2cc(O)ccc2c(O)c1-c1ccccc1
inhibition of growth at 10 µM [1]: 96.3%
inhibition of growth at 1 µM [2]: 61.7%
inhibition of growth at 0.1 µM [3]: 53.7%
MIC90 [4]: 8.2 µM (≈ 2.08 µg/mL)

CCCc1c(O)c2cc(F)ccc2[nH]c1=O
inhibition of growth at 10 µM [1]: 78.2%
inhibition of growth at 1 µM [2]: 38.5%
inhibition of growth at 0.1 µM [3]: 13.2%

COc1ccc2c(O)c(-c3ccccc3)c(=O)[nH]c2c1
inhibition of growth at 10 µM [1]: 98.2%
inhibition of growth at 1 µM [2]: 74.4%
inhibition of growth at 0.1 µM [3]: 56.5%
MIC90 [4]: 9.1 µM (≈ 2.43 µg/mL)

CCCCc1c(O)c2cc(Cl)ccc2[nH]c1=O
inhibition of growth at 10 µM [1]: 64.8%
inhibition of growth at 1 µM [2]: 35.4%
inhibition of growth at 0.1 µM [3]: 21.6%

Cc1c(O)c2ccccc2n(C)c1=O
inhibition of growth at 10 µM [1]: 83.8%
inhibition of growth at 1 µM [2]: 32.9%
inhibition of growth at 0.1 µM [3]: 4%

O=c1c(-c2ccccc2)c(O)c2ccccc2n1Cc1ccccc1
inhibition of growth at 10 µM [1]: 71.5%
inhibition of growth at 1 µM [2]: 42.4%
inhibition of growth at 0.1 µM [3]: 31.2%

CCc1c(OC(C)=O)c2cc(OC)ccc2[nH]c1=O
inhibition of growth at 10 µM [1]: 27.8%
inhibition of growth at 1 µM [2]: 10.1%
inhibition of growth at 0.1 µM [3]: 0%

CCCCc1c(O)c2ccccc2n(Cc2ccccc2)c1=O
inhibition of growth at 10 µM [1]: 33.2%
inhibition of growth at 1 µM [2]: 25.3%
inhibition of growth at 0.1 µM [3]: 20.9%

CC(=O)Oc1c(-c2ccccc2)c(=O)[nH]c2ccccc12
inhibition of growth at 10 µM [1]: 72.3%
inhibition of growth at 1 µM [2]: 35.4%
inhibition of growth at 0.1 µM [3]: 10.9%

CC(=O)Oc1c(C)c(=O)[nH]c2ccccc12
inhibition of growth at 10 µM [1]: 45.2%
inhibition of growth at 1 µM [2]: 31.8%
inhibition of growth at 0.1 µM [3]: 19.2%

CC(C)c1c(O)c2ccccc2[nH]c1=O
inhibition of growth at 10 µM [1]: 69.3%
inhibition of growth at 1 µM [2]: 47.4%
inhibition of growth at 0.1 µM [3]: 42.5%

CC12CCC(c3c(O)c(-c4ccccc4)c(=O)n(-c4ccccc4)c31)C2(C)C (racemic)
inhibition of growth at 10 µM [1]: 12.5%
inhibition of growth at 1 µM [2]: 8.1%
inhibition of growth at 0.1 µM [3]: 0%

CCCCc1c(O)c2c(n(-c3ccccc3)c1=O)C1(C)CCC2C1(C)C (racemic)
inhibition of growth at 10 µM [1]: 7.5%
inhibition of growth at 1 µM [2]: 1.2%
inhibition of growth at 0.1 µM [3]: 0%

NNC(=O)c1ccncc1 [ISONIAZID]
MIC90 [4]: 0.3 µM (≈ 0.0411 µg/mL)

CO[C@H]1/C=C/O[C@@]2(C)Oc3c(C)c(O)c4c(O)c(c(/C=N/N5CCN(C)CC5)c(O)c4c3C2=O)NC(=O)/C(C)=C\C=C\[C@H](C)[C@H](O)[C@@H](C)[C@@H](O)[C@@H](C)[C@H](OC(C)=O)[C@@H]1C [RIFAMPIN]
MIC90 [4]: 0.1 µM (≈ 0.0823 µg/mL)
